According to patent US11464751B2, “Use of fluoroethylnormemantine for the prevention and treatment of anxiety” (REST THERAPEUTICS, priority 2017, dated 2022):
One block for each compound: values may come before it.

Tests used:
naive rats (Wistar) [1] = assay: Pre-pulse inhibition (PPI) test, sensory filtering; assay type: in vivo, rat; settings: for Percentage of pre-pulse inhibition, Average: average over first pulse intensities; for effect on PPI (schizophrenia-inducing effect): memantine 10 mg/kg (p<0.01), FENM even at high dose (20 mg/kg)
Description: • Pre-pulse inhibition (PPI) test: One of the major problems of treatments targeting the central nervous system remains the achievement of the desired effect without the appearance of crippling psychological side effects, even exceeding the therapeutic benefit of the treatment. These effects are often significant (the rebound effect of benzodiazepines) or even paradoxical (the anxiety-producing effect of short-term serotonin reuptake inhibitors). In particular, they can induce a destabilization of sensory filtering and generate symptoms similar to schizophrenia.
(§1) Pre-impulse inhibition testing is based on the brain's ability to adapt to a moderate-intensity stimulus in order to limit the effect of the same high-intensity stimulus. In this test, the animals are placed in a soundproof cage and subjected either to a sound pulse of 120 decibels (dB) or to a sequence of 2 pulses spaced about 100 milliseconds apart, the second pulse being of fixed intensity of 120 dB and the first of variable intensity between 70 and 85 dB).
In animals with psychotic disorders of a schizophrenic nature, this inhibition is more or less eliminated.
(§2) In the following examples, the effects of memantine, propranolol and fluoroethylnormemantine (FENM, the subject of the present invention) are studied in naive rats (Wistar) subjected to various tests related to depression or anxiety and then compared.
(§3) The test substances are administered to rats intraperitoneally in a volume of 5 ml/kg, 30 minutes before the behavioral tests are performed.
(§4) The injected solutions contain either of the molecules in the form of one of their salts, a hydrochloride (memantine·HCl and FENM·HCl) for the nitrogen derivatives and as such for propranolol, at the concentrations indicated below in a mixture of 95% (NaCl 0.9% ww in water)/5% ethanol. In each experiment, the dose per kilogram is referenced.
as §1, with “the animals (12 per group) are placed” for “the animals are placed”, “being of a fixed intensity” for “being of fixed intensity”

naive rats (Wistar) [2] = assay: Open-field test (locomotor activity and anxiety); assay type: in vivo, rat; settings: for drowsiness effect / overall activity level of the animals: open field over 2 hours, FENM even at high doses, memantine 10 mg/kg
Procedure: Thus, to test state anxiety, several animal models are commonly used and have been validated by numerous studies: • open field test: This consists of forcibly exposing the animal (rat or mouse) to a new environment and observing its behavior. […] Locomotor activity and behavior are then assessed by recording the number of crossings of the grid lines, the frequency of retreats, the number of entries and the time spent in the central squares. This animal model is considered a good model of “normal” anxiety when adapting to a new environment. It has good predictability of human response to treatment (L. Prut, European Journal of Pharmacology 463 (2003) 3-33). The open-field test is also useful, when it is prolonged (behavioral recording time over 2 hours), as it allows monitoring the motor activity of the animals and thus their state of wakefulness, whereas measurements at short times give information on anxiety. • the light-dark box test: another animal model of anxiety is based on the aversive properties of an open-field space and on the comparison of exploratory activities in a lit compartment and in a dark compartment under the influence of anxiolytic substances (M Bourin, European Journal of Pharmacology 463 (2003) 55-65). This paradigm is based on rodents' innate aversion to bright places and on rodents' spontaneous exploratory behavior in response to stressful environments (new environment or light). The test device is divided into two compartments, one is small, dark and safe, the second is large, bright and stressful. This paradigm allows the prediction of anxiolytic or anxiogenic drug-like activities in mice. Passages between each compartment are a cue of exploration activity, while the time spent in each compartment reflects aversion. Anxiolytics, effective in humans, classic (benzodiazepines) as well as more recent anxiolytic compounds (serotonergic drugs or drugs acting on neuropeptide receptors) can be detected by this animal model which has the advantage of being simple and quick to use. • The open-field test with light gradient: the two models described above can be judiciously coupled in order to check the anxiolytic potential of a molecule, by eliminating the “burrow” effect induced by the presence of the dark compartment.
as §2, §3, §4
In this way, the animals are given a constant volume of solution (to the nearest difference in weight) equal to 5 ml/kg, or 1.5 ml for a 300 g rat.
For each paradigm, and each solution tested, 12 rats are subjected to injection and behavioral testing. The control solution is a saline solution.
• Open-field test: The locomotor activity of the animals and the “normal” anxiety associated with the discovery of an unknown environment are measured in an open field using a video monitoring system for 2 hours, 30 minutes after the injection of the solutions to be tested. The recorded data include, with a reading every 5 minutes, the time spent in the central squares, vertical activity, and the number of displacements.

[3] = 10 mg/kg i.p., first pulse 72 dB
[4] = 10 mg/kg i.p., first pulse 76 dB
[5] = 10 mg/kg i.p., first pulse 80 dB
[6] = 10 mg/kg i.p., first pulse 84 dB
[7] = 10 mg/kg i.p., 30 min before test, 0-5 min

Percentage of pre-pulse inhibition, Average (naive rats (Wistar) [1]; 5 mg/kg i.p.): 42% | Percentage of pre-pulse inhibition as a function of the intensity of the first pulse (naive rats (Wistar) [1]; 5 mg/kg i.p., first pulse 72 dB): 24% | Percentage of pre-pulse inhibition as a function of the intensity of the first pulse (naive rats (Wistar) [1]; 5 mg/kg i.p., first pulse 76 dB): 37% | Percentage of pre-pulse inhibition as a function of the intensity of the first pulse (naive rats (Wistar) [1]; 5 mg/kg i.p., first pulse 80 dB): 47% | Percentage of pre-pulse inhibition as a function of the intensity of the first pulse (naive rats (Wistar) [1]; 5 mg/kg i.p., first pulse 84 dB): 60% | Percentage of pre-pulse inhibition, Average (naive rats (Wistar) [1]; 10 mg/kg i.p.): 45% | Percentage of pre-pulse inhibition as a function of the intensity of the first pulse (naive rats (Wistar) [1]; [3]): 27% | Percentage of pre-pulse inhibition as a function of the intensity of the first pulse (naive rats (Wistar) [1]; [4]): 39% | Percentage of pre-pulse inhibition as a function of the intensity of the first pulse (naive rats (Wistar) [1]; [5]): 51% | Percentage of pre-pulse inhibition as a function of the intensity of the first pulse (naive rats (Wistar) [1]; [6]): 64% | Percentage of pre-pulse inhibition, Average (naive rats (Wistar) [1]; 20 mg/kg i.p.): 48% | Percentage of pre-pulse inhibition as a function of the intensity of the first pulse (naive rats (Wistar) [1]; 20 mg/kg i.p., first pulse 72 dB): 31% | Percentage of pre-pulse inhibition as a function of the intensity of the first pulse (naive rats (Wistar) [1]; 20 mg/kg i.p., first pulse 76 dB): 46% | Percentage of pre-pulse inhibition as a function of the intensity of the first pulse (naive rats (Wistar) [1]; 20 mg/kg i.p., first pulse 80 dB): 54% | Percentage of pre-pulse inhibition as a function of the intensity of the first pulse (naive rats (Wistar) [1]; 20 mg/kg i.p., first pulse 84 dB): 62% | effect on PPI (schizophrenia-inducing effect) (naive rats (Wistar) [1]): induces no effect | Vertical activity (naive rats (Wistar) [2]; 5 mg/kg i.p., 0-5 min): 40.67 | Vertical activity (naive rats (Wistar) [2]; 5 mg/kg i.p., 0-10 min): 71.17 | Number of displacements (naive rats (Wistar) [2]; 5 mg/kg i.p., 0-120 min): 1600 | Vertical activity (naive rats (Wistar) [2]; 5 mg/kg i.p., 0-120 min): 136.00 | Vertical activity (naive rats (Wistar) [2]; 5 mg/kg i.p., 5-10 min): 30.50 | Vertical activity (naive rats (Wistar) [2]; 10 mg/kg i.p., 0-5 min): 52.33 | Vertical activity (naive rats (Wistar) [2]; 10 mg/kg i.p., 0-10 min): 86.42 | Number of displacements (naive rats (Wistar) [2]; 10 mg/kg i.p., 0-120 min): 1800 | Vertical activity (naive rats (Wistar) [2]; 10 mg/kg i.p., 0-120 min): 173.75 | Vertical activity (naive rats (Wistar) [2]; 10 mg/kg i.p., 5-10 min): 34.08 | Vertical activity (naive rats (Wistar) [2]; 20 mg/kg i.p., 0-5 min): 47.33 | Vertical activity (naive rats (Wistar) [2]; 20 mg/kg i.p., 0-10 min): 66.58 | Number of displacements (naive rats (Wistar) [2]; 20 mg/kg i.p., 0-120 min): 2100 | Vertical activity (naive rats (Wistar) [2]; 20 mg/kg i.p., 0-120 min): 208.92 | Vertical activity (naive rats (Wistar) [2]; 20 mg/kg i.p., 5-10 min): 19.25 | drowsiness effect / overall activity level of the animals (naive rats (Wistar) [2]): does not generate the drowsiness effect
SMILES: NC12CC3CC(C1)CC(CCF)(C3)C2
Mean time spent in the central squares per time interval (naive rats (Wistar) [2]; 5 mg/kg i.p., 30 min before test, 0-5 min): 128.8 s | Mean time spent in the central squares per time interval (naive rats (Wistar) [2]; 5 mg/kg i.p., 0-10 min): 216.8 s | Mean time spent in the central squares per time interval (naive rats (Wistar) [2]; 5 mg/kg i.p., 0-120 min): 1563.6 s | Mean time spent in the central squares per time interval (naive rats (Wistar) [2]; 5 mg/kg i.p., 5-10 min): 88.0 s | Mean time spent in the central squares per time interval (naive rats (Wistar) [2]; [7]): 116.8 s | Mean time spent in the central squares per time interval (naive rats (Wistar) [2]; 10 mg/kg i.p., 0-10 min): 226.7 s | Mean time spent in the central squares per time interval (naive rats (Wistar) [2]; 10 mg/kg i.p., 0-120 min): 1803.8 s | Mean time spent in the central squares per time interval (naive rats (Wistar) [2]; 10 mg/kg i.p., 5-10 min): 109.9 s | Mean time spent in the central squares per time interval (naive rats (Wistar) [2]; 20 mg/kg i.p., 30 min before test, 0-5 min): 129.8 s | Mean time spent in the central squares per time interval (naive rats (Wistar) [2]; 20 mg/kg i.p., 0-10 min): 235.7 s | Mean time spent in the central squares per time interval (naive rats (Wistar) [2]; 20 mg/kg i.p., 0-120 min): 1692.8 s | Mean time spent in the central squares per time interval (naive rats (Wistar) [2]; 20 mg/kg i.p., 5-10 min): 105.9 s

Percentage of pre-pulse inhibition, Average (naive rats (Wistar) [1]; 10 mg/kg i.p.): 31% | Percentage of pre-pulse inhibition as a function of the intensity of the first pulse (naive rats (Wistar) [1]; [3]): 19% | Percentage of pre-pulse inhibition as a function of the intensity of the first pulse (naive rats (Wistar) [1]; [4]): 24% | Percentage of pre-pulse inhibition as a function of the intensity of the first pulse (naive rats (Wistar) [1]; [5]): 36% | Percentage of pre-pulse inhibition as a function of the intensity of the first pulse (naive rats (Wistar) [1]; [6]): 44% | effect on PPI (schizophrenia-inducing effect) (naive rats (Wistar) [1]): induces an inhibition of the PPI effect | Vertical activity (naive rats (Wistar) [2]; 10 mg/kg i.p., 0-5 min): 11.33 | Vertical activity (naive rats (Wistar) [2]; 10 mg/kg i.p., 0-10 min): 16.00 | Number of displacements (naive rats (Wistar) [2]; 10 mg/kg i.p., 0-120 min): 750 | Vertical activity (naive rats (Wistar) [2]; 10 mg/kg i.p., 0-120 min): 60.08 | Vertical activity (naive rats (Wistar) [2]; 10 mg/kg i.p., 5-10 min): 4.67 | drowsiness effect / overall activity level of the animals (naive rats (Wistar) [2]): decreases the overall activity level
SMILES: CC12CC3CC(C)(C1)CC(N)(C3)C2 [Memantine, memantine]
Mean time spent in the central squares per time interval (naive rats (Wistar) [2]; [7]): 90.4 s | Mean time spent in the central squares per time interval (naive rats (Wistar) [2]; 10 mg/kg i.p., 0-10 min): 136.8 s | Mean time spent in the central squares per time interval (naive rats (Wistar) [2]; 10 mg/kg i.p., 0-120 min): 1874.8 s | Mean time spent in the central squares per time interval (naive rats (Wistar) [2]; 10 mg/kg i.p., 5-10 min): 46.3 s
